Measurements taken from ChEMBL document CHEMBL1201861, “Genomics of Drug Sensitity in Cancer screening data, Wellcome Trust Sanger Institute”.

Columns and labels:
Assay in all cases: cells
[1] = system: BCPAP; format: functional, cell-based, Homo sapiens; conditions: Homo sapiens, BCPAP;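 also: growth inhibition of BCPAP cells, read out in a cell viability assay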
Description: SANGER: Inhibition of human BCPAP cell growth in a cell viability assay.

[2] = system: MKN-7; format: functional, cell-based, Homo sapiens; conditions: Homo sapiens, MKN-7;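 also: growth inhibition of MKN-7 cells, read out with a cell viability assay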
Description: SANGER: Inhibition of human MKN7 cell growth in a cell viability assay.

[3] = system: Ca9-22; format: functional, cell-based, Homo sapiens; conditions: Homo sapiens, Ca9-22;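 also: growth inhibition of Ca9-22 cells, read out with a cell viability assay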
Description: SANGER: Inhibition of human Ca9-22 cell growth in a cell viability assay.

[4] = system: EW-16; format: functional, cell-based, Homo sapiens; conditions: Homo sapiens, EW-16;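 also: growth inhibition of human EW-16 cells, read out as cell viability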
Description: SANGER: Inhibition of human EW-16 cell growth in a cell viability assay.

[5] = system: GP5d; format: functional, cell-based, Homo sapiens; conditions: Homo sapiens, GP5d;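 also: growth inhibition of human GP5d cells, read out with a cell viability assay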
Description: SANGER: Inhibition of human GP5d cell growth in a cell viability assay.

[6] = system: SCC-25; format: functional, cell-based, Homo sapiens; conditions: Homo sapiens, SCC-25;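 also: growth inhibition of SCC-25 cells, measured with a cell viability assay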
[7] = system: 8505C; format: functional, cell-based, Homo sapiens; conditions: Homo sapiens, 8505C
Description: SANGER: Inhibition of human 8505C cell growth in a cell viability assay.

[8] = system: BE-13; format: functional, cell-based; conditions: Homo sapiens;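 also: growth inhibition of human BE-13 cells, measured with a cell viability assay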
Description: SANGER: Inhibition of human BE-13 cell growth in a cell viability assay.

[9] = system: 8-MG-BA; format: functional, cell-based, Homo sapiens; conditions: Homo sapiens, 8-MG-BA;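 also: growth inhibition of 8-MG-BA cells, read out with a cell viability assay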
Description: SANGER: Inhibition of human 8-MG-BA cell growth in a cell viability assay.

[10] = system: NCI-H209; format: functional, cell-based; conditions: Homo sapiens;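 also: growth inhibition of human NCI-H209 cells, measured by a cell viability assay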
Description: SANGER: Inhibition of human NCI-H209 cell growth in a cell viability assay.

[11] = system: NCI-H358; format: functional, cell-based, Homo sapiens; conditions: Homo sapiens, NCI-H358;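 also: growth inhibition of NCI-H358 human cells, read out with a cell viability assay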
Description: SANGER: Inhibition of human NCI-H358 cell growth in a cell viability assay.

[12] = system: KG-1; format: functional, cell-based; conditions: Homo sapiens;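 also: growth inhibition of KG-1 cells, read out by a cell viability assay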
Description: SANGER: Inhibition of human KG-1 cell growth in a cell viability assay.

[13] = system: LK-2; format: functional, cell-based, Homo sapiens; conditions: Homo sapiens, LK-2;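 also: growth inhibition of LK-2 cells, read out with a viability assay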
Description: SANGER: Inhibition of human LK-2 cell growth in a cell viability assay.

[14] = system: NCI-H1581; format: functional, cell-based, Homo sapiens; conditions: Homo sapiens, NCI-H1581;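 also: cell growth inhibition read out by a viability assay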
Description: SANGER: Inhibition of human NCI-H1581 cell growth in a cell viability assay.

[15] = system: HAL-01; format: functional, cell-based; conditions: Homo sapiens;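 also: growth inhibition of human HAL-01 cells, read out with a cell viability assay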
Description: SANGER: Inhibition of human HAL-01 cell growth in a cell viability assay.

[16] = system: RT-112; format: functional, cell-based, Homo sapiens; conditions: Homo sapiens, RT-112
[17] = system: LAN-6; format: functional, cell-based, Homo sapiens; conditions: Homo sapiens, LAN-6;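 also: growth inhibition of LAN-6 cells, determined with a cell viability assay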
Description: SANGER: Inhibition of human LAN-6 cell growth in a cell viability assay.

[18] = system: GI-ME-N; format: functional, cell-based, Homo sapiens; conditions: Homo sapiens, GI-ME-N;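 also: growth inhibition of human GI-ME-N cells, read out with a cell viability assay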
Description: SANGER: Inhibition of human GI-ME-N cell growth in a cell viability assay.

[19] = system: NCI-H28; format: functional, cell-based, Homo sapiens; conditions: Homo sapiens, NCI-H28;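 also: growth inhibition of human NCI-H28 cells, read out as cell viability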
Description: SANGER: Inhibition of human NCI-H28 cell growth in a cell viability assay.

[20] = system: LB771-HNC; format: functional, cell-based, Homo sapiens; conditions: Homo sapiens, LB771-HNC;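 also: growth inhibition of LB771-HNC human cells, read out with a cell viability assay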
[21] = system: SNU-449; format: functional, cell-based, Homo sapiens; conditions: Homo sapiens, SNU-449
Description: SANGER: Inhibition of human SNU-449 cell growth in a cell viability assay.

[22] = system: SNU-C2B; format: functional, cell-based, Homo sapiens; conditions: Homo sapiens, SNU-C2B;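 also: cell viability readout used to measure compound-driven suppression of SNU-C2B cell proliferation, IC50 marking half-maximal growth inhibition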
Description: SANGER: Inhibition of human SNU-C2B cell growth in a cell viability assay.

[23] = system: EGI-1; format: functional, cell-based, Homo sapiens; conditions: Homo sapiens, EGI-1;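 also: cell viability readout used to gauge growth inhibition of EGI-1 cells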
Description: SANGER: Inhibition of human EGI-1 cell growth in a cell viability assay.

[24] = system: SJSA-1; format: functional, cell-based, Homo sapiens; conditions: Homo sapiens, SJSA-1;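 also: growth inhibition of human SJSA-1 cells, read out through a cell viability measurement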
Description: SANGER: Inhibition of human SJSA-1 cell growth in a cell viability assay.

[25] = system: SK-MES-1; format: functional, cell-based, Homo sapiens; conditions: Homo sapiens, SK-MES-1;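 also: growth inhibition of human SK-MES-1 cells, read out with a cell viability assay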
Description: SANGER: Inhibition of human SK-MES-1 cell growth in a cell viability assay.

[26] = system: SK-OV-3; format: functional, cell-based, Homo sapiens; conditions: Homo sapiens, SK-OV-3;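 also: growth inhibition of SK-OV-3 human cells, read out with a cell viability assay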
Description: SANGER: Inhibition of human SK-OV-3 cell growth in a cell viability assay.

[27] = system: 647-V; format: functional, cell-based, Homo sapiens; conditions: Homo sapiens, 647-V;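 also: growth inhibition of 647-V cells, read out with a cell viability assay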
Description: SANGER: Inhibition of human 647-V cell growth in a cell viability assay.

[28] = system: D283 Med; format: functional, cell-based, Homo sapiens; conditions: Homo sapiens, D283 Med
Description: SANGER: Inhibition of human D-283MED cell growth in a cell viability assay.

[29] = system: HOP-62; format: functional, cell-based, Homo sapiens; conditions: Homo sapiens, HOP-62;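 also: cell growth inhibition determined with a viability assay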
Description: SANGER: Inhibition of human HOP-62 cell growth in a cell viability assay.

[30] = system: CHP-212; format: functional, cell-based, Homo sapiens; conditions: Homo sapiens, CHP-212
Description: SANGER: Inhibition of human CHP-212 cell growth in a cell viability assay.

[31] = system: NCI-H1155; format: functional, cell-based; conditions: Homo sapiens;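 also: cell growth inhibition measured by a viability assay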
Description: SANGER: Inhibition of human NCI-H1155 cell growth in a cell viability assay.

[32] = system: ONS-76; format: functional, cell-based, Homo sapiens; conditions: Homo sapiens, ONS-76;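 also: growth inhibition of human ONS-76 cells, read out with a cell viability assay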
[33] = system: TGBC1TKB; format: functional, cell-based, Homo sapiens; conditions: Homo sapiens, TGBC1TKB;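 also: growth inhibition of TGBC1TKB cells, read out by a cell viability assay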
Description: SANGER: Inhibition of human TGBC1TKB cell growth in a cell viability assay.

[34] = system: NCI-H1793; format: functional, cell-based, Homo sapiens; conditions: Homo sapiens, NCI-H1793;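 also: cell growth inhibition, read out by a cell viability assay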
Description: SANGER: Inhibition of human NCI-H1793 cell growth in a cell viability assay.

[35] = system: A4-Fuk; format: functional, cell-based; conditions: Homo sapiens;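 also: growth inhibition of A4-Fuk cells, read out by a cell viability assay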
Description: SANGER: Inhibition of human A4-Fuk cell growth in a cell viability assay.

[36] = system: NKM-1; format: functional, cell-based; conditions: Homo sapiens;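 also: growth inhibition of NKM-1 cells, read out with a cell viability assay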
[37] = system: Panc1005; format: functional, cell-based, Homo sapiens; conditions: Homo sapiens, Panc1005;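 also: growth inhibition of human PANC-10-05 cells, measured by a cell viability assay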
Description: SANGER: Inhibition of human PANC-10-05 cell growth in a cell viability assay.

[38] = system: A2780; format: functional, cell-based, Homo sapiens; conditions: Homo sapiens, A2780;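 also: growth inhibition of A2780 cells, read out with a cell viability assay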
Description: SANGER: Inhibition of human A2780 cell growth in a cell viability assay.

[39] = system: GAMG; format: functional, cell-based, Homo sapiens; conditions: Homo sapiens, GAMG;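 also: cell growth inhibition measured by a viability assay in the GAMG human cell line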
Description: SANGER: Inhibition of human GAMG cell growth in a cell viability assay.

[40] = system: UMC-11; format: functional, cell-based, Homo sapiens; conditions: Homo sapiens, UMC-11;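 also: growth inhibition of UMC-11 cells, read out with a cell viability assay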
Description: SANGER: Inhibition of human UMC-11 cell growth in a cell viability assay.

[41] = system: NCI-H1693; format: functional, cell-based, Homo sapiens; conditions: Homo sapiens, NCI-H1693;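 also: growth inhibition of the human cell line, read out with a cell viability assay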
Description: SANGER: Inhibition of human NCI-H1693 cell growth in a cell viability assay.

[42] = system: HT-1080; format: functional, cell-based, Homo sapiens; conditions: Homo sapiens, HT-1080
Description: SANGER: Inhibition of human HT-1080 cell growth in a cell viability assay.

[43] = system: KP-N-YN; format: functional, cell-based; conditions: Homo sapiens;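 also: growth inhibition of KP-N-YN cells, read out with a cell viability assay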
Description: SANGER: Inhibition of human KP-N-YN cell growth in a cell viability assay.

[44] = system: IST-MES1; format: functional, cell-based, Homo sapiens; conditions: Homo sapiens, IST-MES1;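 also: growth inhibition of IST-MES1 cells, measured with a cell viability assay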
Description: SANGER: Inhibition of human IST-MES1 cell growth in a cell viability assay.

[45] = system: LB2518-MEL; format: functional, cell-based, Homo sapiens; conditions: Homo sapiens, LB2518-MEL;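 also: growth inhibition of human LB2518-MEL cells, measured with a cell viability assay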
Description: SANGER: Inhibition of human LB2518-MEL cell growth in a cell viability assay.

[46] = system: NCI-H720; format: functional, cell-based; conditions: Homo sapiens;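 also: growth inhibition of human NCI-H720 cells determined by a cell viability assay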
Description: SANGER: Inhibition of human NCI-H720 cell growth in a cell viability assay.

[47] = system: AGS; format: functional, cell-based, Homo sapiens; conditions: Homo sapiens, AGS;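 also: growth inhibition of AGS cells, determined with a cell viability assay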
Description: SANGER: Inhibition of human AGS cell growth in a cell viability assay.

[48] = system: SW1573; format: functional, cell-based, Homo sapiens; conditions: Homo sapiens, SW1573;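 also: growth inhibition of SW1573 cells, read out with a cell viability assay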
Description: SANGER: Inhibition of human SW1573 cell growth in a cell viability assay.

[49] = system: KURAMOCHI; format: functional, cell-based; conditions: Homo sapiens;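 also: growth inhibition of KURAMOCHI cells, read out with a cell viability assay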
Description: SANGER: Inhibition of human KURAMOCHI cell growth in a cell viability assay.

[50] = system: NB14; format: functional, cell-based; conditions: Homo sapiens;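 also: growth inhibition of NB14 cells measured with a cell viability assay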
Description: SANGER: Inhibition of human NB14 cell growth in a cell viability assay.

For CN(C)C/C=C/C(=O)Nc1cc2c(Nc3ccc(F)c(Cl)c3)ncnc2cc1O[C@H]1CCOC1 [AFATINIB], the IC50 [1] was over 0.5 µM, the IC50 [2] was over 0.5 µM and the IC50 [3] was 0.0835 µM. It also gave an IC50 [4] of over 0.5 µM, an IC50 [5] of over 0.5 µM and an IC50 [6] of over 0.5 µM. The IC50 [7] was over 0.5 µM, the IC50 [8] was over 0.5 µM and the IC50 [9] was over 0.5 µM. The IC50 [10] was 0.205 µM, the IC50 [11] was over 0.5 µM and the IC50 [12] was over 0.5 µM. It also gave an IC50 [13] of over 0.5 µM, an IC50 [14] of over 0.5 µM and an IC50 [15] of over 0.5 µM. It also gave an IC50 [16] of over 0.5 µM, an IC50 [17] of over 0.5 µM and an IC50 [18] of over 0.5 µM. It also gave an IC50 [19] of over 0.5 µM, an IC50 [20] of over 0.5 µM and an IC50 [21] of over 0.5 µM. It also gave an IC50 [22] of over 0.5 µM, an IC50 [23] of over 0.5 µM and an IC50 [24] of over 0.5 µM. The IC50 [25] was over 0.5 µM, the IC50 [26] was over 0.5 µM and the IC50 [27] was over 0.5 µM. It also gave an IC50 [28] of over 0.5 µM, an IC50 [29] of over 0.5 µM and an IC50 [30] of over 0.5 µM. It also gave an IC50 [31] of over 0.5 µM, an IC50 [32] of over 0.5 µM and an IC50 [33] of over 0.5 µM. For the same compound, the IC50 [34] was over 0.5 µM, the IC50 [35] was over 0.5 µM and the IC50 [36] was over 0.5 µM. It also gave an IC50 [37] of over 0.5 µM, an IC50 [38] of over 0.5 µM and an IC50 [39] of over 0.5 µM. The IC50 [40] was over 0.5 µM, the IC50 [41] was over 0.5 µM and the IC50 [42] was over 0.5 µM. For the same compound, the IC50 [43] was over 0.5 µM, the IC50 [44] was over 0.5 µM and the IC50 [45] was over 0.5 µM. It also gave an IC50 [46] of 0.0532 µM, an IC50 [47] of over 0.5 µM and an IC50 [48] of over 0.5 µM. The IC50 [49] was over 0.5 µM and the IC50 [50] was over 0.5 µM.
In the case of O=C(NOCC1CC1)c1ccc(F)c(F)c1Nc1ccc(I)cc1Cl [CI-1040], the IC50 [1] is reported as 5.33 µM, the IC50 [2] is reported as over 10 µM and the IC50 [3] is reported as 2.97 µM. For the same compound, the IC50 [4] was 8.08 µM, the IC50 [5] was 0.983 µM and the IC50 [6] was 7.71 µM. The IC50 [7] was 3.9 µM, the IC50 [8] was 7.34 µM and the IC50 [9] was over 10 µM. The IC50 [10] was over 10 µM, the IC50 [11] was 4.45 µM and the IC50 [12] was 0.307 µM. For the same compound, the IC50 [13] was over 10 µM, the IC50 [14] was 8.26 µM and the IC50 [15] was over 10 µM. The IC50 [16] was 1.59 µM, the IC50 [17] was 4.32 µM and the IC50 [18] was over 10 µM. It also gave an IC50 [19] of over 10 µM, an IC50 [20] of over 10 µM and an IC50 [21] of over 10 µM. For the same compound, the IC50 [22] was over 10 µM, the IC50 [23] was 3.61 µM and the IC50 [24] was over 10 µM. It also gave an IC50 [25] of 5.84 µM, an IC50 [26] of over 10 µM and an IC50 [27] of over 10 µM. The IC50 [28] was over 10 µM, the IC50 [29] was over 10 µM and the IC50 [30] was 0.0289 µM. For the same compound, the IC50 [31] was 5.4 µM, the IC50 [32] was 1.22 µM and the IC50 [33] was 7.89 µM. For the same compound, the IC50 [34] was over 10 µM, the IC50 [35] was 1.57 µM and the IC50 [36] was over 10 µM. For the same compound, the IC50 [37] was 6.28 µM, the IC50 [38] was 0.498 µM and the IC50 [39] was 4.02 µM. The IC50 [40] was over 10 µM, the IC50 [41] was 8.92 µM and the IC50 [42] was 3.02 µM. It also gave an IC50 [43] of over 10 µM, an IC50 [44] of over 10 µM and an IC50 [45] of 0.716 µM. It also gave an IC50 [46] of over 10 µM, an IC50 [47] of 0.117 µM and an IC50 [48] of over 10 µM. For the same compound, the IC50 [49] was over 10 µM and the IC50 [50] was 7.67 µM.
